From patent publication US6407058B1, “Modifying the permeability of physiological barriers” (Eisai Co., Limited, priority 1996, dated 2002)

Tests used:
Format in all cases: cell-based
[1] = tested on: E-cadherin; assay: E-cadherin electrophoretic mobility by immunoblotting, MDCK I cells; details: 200 nM PDB, 30 minutes
Procedure: (§1) The migration of the cellular proteins p100 and p120 during electrophoresis is increased following PDB-treatment of MDCK I cells. PDB (phorbol-12,13-dibutyrate) is a pharmacological activator of protein kinase C. MDCK I cells are a kidney derived epithelial cell line, with particularly well developed junctional complexes. Cells treated for 30 minutes with either 200 nM PDB (+) or vehicle (−) were then lysed into Laemmli sample buffer, and separated by electrophoresis using 6% acrylamide gels. Proteins were transferred to nitrocellulose and probed with antibodies to p100/p120, and then reprobed with E-cadherin and paxillin antibodies.
Cell extracts or immunoprecipitates in SDS sample buffer were resolved by SDS-PAGE. The slab gels were then equilibrated in buffer comprising; 48 mM Tris, 39 mM glycine, 20% methanol and 0.03% SDS. Proteins were transferred to nitrocellulose filters (Hybond ECL; Amersham), which were Ponceau S stained and then blocked for 2 hours at 37° C. with 1% BSA in PBS containing 0.05% Tween-20. Filters were then probed with p120 antibody, at a dilution of 1:2500. […] The filters were then extensively washed in PBS/0.5% Tween-20, and immunoreactive bands were detected by enhanced chemiluminescence (Amersham) following the manufacturers instructions.

[2] = tested on: p100/p120; assay: p100/p120 electrophoretic mobility (band shift) by immunoblotting, MDCK I cells; details: 30 minutes
Procedure: as §1
MDCK strain I and II cells were provided by Barry Gumbiner (memorial Sloan-Kettering Cancer Center, NY). LLC-PK1 and Caco-2 cells were obtained from the European Collection of Animal Cell Cultures. All cells were maintained at 37° C. under 5% CO2 in humidified air. MDCK strain I and II cells were maintained in MEM containing 10% FCS, 100 U/ml penicillin, 100 μg/ml streptomycin and 2 mM L-glutamine. Caco-2 cells were maintained in MEM containing 15% FCS, 1% non-essential amino acids and 1 μg/ml bovine insulin (Sigma I-6634). LLC-PK1 cells were grown in M199 (Gibco), 10% FCS, 100 U/ml penicillin, 100 μg/ml streptomycin and 2 mM L-glutamine. For whole cell lysate analysis, 10^5 cells were plated on 6.5 mm diameter, 0.4 μm, polycarbonate Transwell filters from Costar, in 0.25 ml of medium. The basolateral chamber contained 0.75 ml of medium. For immunoprecipitation, 5×10^5 cells were plated onto 24 mm Transwell filters, in 2 ml of medium, with 3 ml of medium in the lower chamber. Cells were used 4-7 days after plating. Tissue culture materials were from Gibco. Porcine brain endothelial cells were isolated and grown by modifications of a previously published procedure (Rubin et al., 1991). Brain capillary fragments were plated on dishes coated with rat tail collagen and human fibronectin. The cultures were fed every other day with growth medium composed of 50% astrocyte-conditioned medium and 50% Dulbecco's Modified Eagle Medium containing 10% plasma-derived serum, 125 μg/ml heparin, antibiotics and glutamine. They were incubated in a humidified atmosphere of 10% CO2 at 37° C. When the endothelial cells were approximately 50% confluent (after 4-6 days in culture), they were trypsinized and plated onto collagen-coated polycarbonate Transwell filters (6.5 mm diameter, 0.4 μm pore size, tissue culture treated, Costar Corp, Cambridge, Mass., U.S.A.) in the same medium (250 μl apically, 750 μl basolaterally). After 2-3 days on filters, the medium was switched to a 1:1 mixture of astrocyte-conditioned medium and a Dulbecco's Modified Eagle Medium-based, chemically defined medium (‘N2’, Rubin et al., 1991; Bottenstein and Sato, 1979). The final concentration of plasma-derived serum was 5%. Human umbilical vein endothelial cells were from Clonetics.
(§2) Whole cell lysates were prepared by rapidly replacing the culture medium in 6.5 mm with hot Laemmli sample buffer, followed by heating at 100° C. for 5 minutes. Immunoprecipitations were carried out at 4° C. Confluent monolayers of cells were washed rapidly with ice cold PBS (containing 0.9 mM CaCl2 and 0.5 mM MgCl2) before addition of 0.5 ml of the appropriate buffer. The filters were then gently scraped, and the lysate was removed and centrifuged at 14000× g. The supernatant was precleared with 10% (w/v) protein A-Sepharose in lysis buffer for 30-60 minutes. Appropriate primary antibodies were added to the lysate, and after 2-3 hours the immunecomplex was isolated, using rabbit anti-mouse secondary antibodies (Jackson Immunoresearch Labs Inc., West Grove, Pa.) and protein A-Sepharose. The beads were washed fives times with lysis buffer, and the bound protein was solubilized in SDS-sample buffer, followed by heating at 100° C. for 5 minutes.
Cell extracts or immunoprecipitates in SDS sample buffer were resolved by SDS-PAGE. […]

[3] = tested on: p100/p120; assay: immunofluorescence localisation of p100/p120, MDCK I cells; details: PDB-treated vs control
Text: It has been shown that although some of the p100/p120 in cells is associated with adherens junctions, there is also a large pool that is not complexed with cadherins (at least by immunoprecipitation analysis). […] This procedure served to isolate only that portion of the cellular p100/p120 that associates with the cadherins. Following electrophoresis, and transfer to nitrocellulose, the p100 and p120 present in E-cadherin immunoprecipitates were detected by immunoblotting (Example 9A). […] In both cases, p100/p120 is shown to be present at regions of cell—cell contact.
Cells were fixed at room temperature for 20 minutes in 3% paraformaldehyde made up in PBS containing 0.5 mM CaCl2 and 0.5 mM MgSO4. Fixed cells were washed and then permeabilized by incubation with 0.5% Triton X-100 in PBS for 10 minutes. After washing, the cells were incubated for 30 minutes in PBS containing 10% calf serum and 0.1 M lysine, pH 7.4. Incubation with p120 antibody (0.5 μg/ml) was in PBS containing 10% calf serum for 1 hour. After washing, the cells were then incubated for 60 minutes with a 1:100 dilution of FITC-conjugated anti-mouse IgG (Jackson Immunoresearch Labs), in PBS containing 10% calf serum. After washing, the filters were mounted with Citifluor (Citifluor Products, Canterbury, UK) and examined using a Nikon Microphot-FXA fluorescence microscope fitted with 40× and 60× objectives. […]

[4] = tested on: p100/p120; assay: p100/p120 electrophoretic mobility, human umbilical vein endothelial cells (HUVECs); details: HUVECs, 200 nM PDB, 30 minutes
Procedure: Cells were treated with or without 200 nM PDB for 30 minutes, lysed into Laemmli sample buffer, separated by electrophoresis and analysed by immunoblotting with antibodies recognising p100 and p120.
Human umbilical vein endothelial cells were incubated with histamine (His), pyrilamine (Pyr) or cimetidine (Cim) alone or in combination. As indicated, cells were preincubated in the absence or presence of cimetidine (10 μM) or pyrilamine (10 μM) for 10 minutes and then treated with or without histamine (10 μM) for a further 10 minutes. The cells were extracted and protein analysed by gel electrophoresis and immunoblotting. […] In the following examples, increase mobility of p100/p120 means decreased phosphorylation.
as §2
Cell extracts or immunoprecipitates in SDS sample buffer were resolved by SDS-PAGE. The slab gels were then equilibrated in buffer comprising; 48 mM Tris, 39 mM glycine, 20% methanol and 0.03% SDS. Proteins were transferred to nitrocellulose filters (Hybond ECL; Amersham), which were Ponceau S stained and then blocked for 2 hours at 37° C. with 1% BSA in PBS containing 0.05% Tween-20. Filters were then probed with p120 antibody, at a dilution of 1:2500. After washing, filters were incubated with horseradish peroxidase conjugated anti-mouse antibody (Amersham), at a dilution of 1:5000. The filters were then extensively washed in PBS/0.5% Tween-20, and immunoreactive bands were detected by enhanced chemiluminescence (Amersham) following the manufacturers instructions.

CCCC(=O)O[C@@H]1[C@@H](C)[C@@]2(O)[C@@H](C=C(CO)C[C@]3(O)C(=O)C(C)=C[C@@H]23)[C@@H]2C(C)(C)[C@]12OC(=O)CCC [PDB, Phorbol-12,13-dibutyrate]
effect on E-cadherin migration [1]: no effect
migration of p100 and p120 during electrophoresis ([2]; MDCK I cells, 200 nM PDB): migrate as faster, tighter bands
concentration of maximal effect on p100/p120 mobility ([2]; MDCK I, PDB 1 to 200 nM): 100 nM
localisation of p100 and p120 [3]: no change in the localisation
mobility of p100 and p120 [4]: the mobility of p100 and p120 increased
